How the values were obtained:
Assay type in all cases: in vivo
[1] = test system: Alopecurus myosuroides; test: Post-emergence herbicidal activity, ALOMY; set-up: key: 5=total damage to plant; 0=no damage to plant; details: 1000 g/Ha, sprayed post-emergence (8 days cultivation), evaluated after 13 days, scale 0-5
Method: (§1) Seeds of a variety of test species were sown in standard soil in pots. After 8 days cultivation (post-emergence) under controlled conditions in a glasshouse (at 24/16° C., day/night; 14 hours light; 65% humidity), the plants were sprayed with an aqueous spray solution derived from the formulation of the technical active ingredient in acetone/water (50:50) solution containing 0.5% Tween 20 (polyoxyethelyene sorbitan monolaurate, CAS RN 9005-64-5). The test plants were then grown in a glasshouse under controlled conditions (at 24/16° C., day/night; 14 hours light; 65% humidity) and watered twice daily. After 13 days, the test was evaluated (5=total damage to plant; 0=no damage to plant).

[2] = test system: Amaranthus retroflexus; test: Pre-emergence herbicidal activity, AMARE; set-up: key: 5=total damage to plant; 0=no damage to plant; details: 1000 g/Ha, sprayed pre-emergence, evaluated after 13 days, scale 0-5
Method: as §1, with “After” for “After 8 days”, “for one day (pre-emergence)” for “(post-emergence)”

[3] = test system: Setaria faberi; test: Pre-emergence herbicidal activity, SETFA; set-up: key: 5=total damage to plant; 0=no damage to plant; details: 1000 g/Ha, sprayed pre-emergence, evaluated after 13 days, scale 0-5
Method: as §1, with “After” for “After 8 days”, “for one day (pre-emergence)” for “(post-emergence)”

[4] = test system: Abutilon theophrasti; test: Pre-emergence herbicidal activity, ABUTH; set-up: key: 5=total damage to plant; 0=no damage to plant; details: 1000 g/Ha, sprayed pre-emergence, evaluated after 13 days, scale 0-5
Method: as §1, with “After” for “After 8 days”, “for one day (pre-emergence)” for “(post-emergence)”

[5] = test system: Echinochloa crus-galli; test: Pre-emergence herbicidal activity, ECHCG; set-up: key: 5=total damage to plant; 0=no damage to plant; details: 1000 g/Ha, sprayed pre-emergence, evaluated after 13 days, scale 0-5
Method: as §1, with “After” for “After 8 days”, “for one day (pre-emergence)” for “(post-emergence)”

[6] = test system: Abutilon theophrasti; test: Post-emergence herbicidal activity, ABUTH; set-up: key: 5=total damage to plant; 0=no damage to plant; details: 1000 g/Ha, sprayed post-emergence (8 days cultivation), evaluated after 13 days, scale 0-5
Method: as §1

[7] = test system: Amaranthus retroflexus; test: Post-emergence herbicidal activity, AMARE; set-up: key: 5=total damage to plant; 0=no damage to plant; details: 1000 g/Ha, sprayed post-emergence (8 days cultivation), evaluated after 13 days, scale 0-5
Method: as §1

[8] = test system: Echinochloa crus-galli; test: Post-emergence herbicidal activity, ECHCG; set-up: key: 5=total damage to plant; 0=no damage to plant; details: 1000 g/Ha, sprayed post-emergence (8 days cultivation), evaluated after 13 days, scale 0-5
Method: as §1

[9] = test system: Zea mays; test: Pre-emergence herbicidal activity, ZEAMX; details: 1000 g/Ha, sprayed pre-emergence, evaluated after 13 days, scale 0-5
Method: as §1, with “After” for “After 8 days”, “for one day (pre-emergence)” for “(post-emergence)”

[10] = test system: Zea mays; test: Post-emergence herbicidal activity, ZEAMX; set-up: key: 5=total damage to plant; 0=no damage to plant; details: 1000 g/Ha, sprayed post-emergence (8 days cultivation), evaluated after 13 days, scale 0-5
Method: as §1

[11] = test system: Alopecurus myosuroides; test: Pre-emergence herbicidal activity, ALOMY; set-up: key: 5=total damage to plant; 0=no damage to plant; details: 1000 g/Ha, sprayed pre-emergence, evaluated after 13 days, scale 0-5
Method: as §1, with “After” for “After 8 days”, “for one day (pre-emergence)” for “(post-emergence)”

[12] = test system: Setaria faberi; test: Post-emergence herbicidal activity, SETFA; set-up: key: 5=total damage to plant; 0=no damage to plant; details: 1000 g/Ha, sprayed post-emergence (8 days cultivation), evaluated after 13 days, scale 0-5
Method: as §1

CCOC1C(O)N(c2cc(C(C)(C)C#N)ncn2)C(=O)N1C (stereo not drawn) [Example A18]
ALOMY damage score, application post-emergence [1]: 4 | AMARE damage score, application pre-emergence [2]: 5 | SETFA damage score, application pre-emergence [3]: 4 | ABUTH damage score, application pre-emergence [4]: 5 | ECHCG damage score, application pre-emergence [5]: 3 | ABUTH damage score, application post-emergence [6]: 5 | AMARE damage score, application post-emergence [7]: 5 | ECHCG damage score, application post-emergence [8]: 5 | ZEAMX damage score, application pre-emergence [9]: 2 | ZEAMX damage score, application post-emergence [10]: 5 | ALOMY damage score, application pre-emergence [11]: 1 | SETFA damage score, application post-emergence [12]: 5

CCCOC1C(O)N(c2cc(C(C)(C)C)ncn2)C(=O)N1C (stereo not drawn) [Example A10]
ALOMY damage score, application post-emergence [1]: 4 | AMARE damage score, application pre-emergence [2]: 5 | SETFA damage score, application pre-emergence [3]: 4 | ABUTH damage score, application pre-emergence [4]: 4 | ECHCG damage score, application pre-emergence [5]: 2 | ABUTH damage score, application post-emergence [6]: 5 | AMARE damage score, application post-emergence [7]: 5 | ECHCG damage score, application post-emergence [8]: 4 | ZEAMX damage score, application pre-emergence [9]: 2 | ZEAMX damage score, application post-emergence [10]: 2 | ALOMY damage score, application pre-emergence [11]: 4 | SETFA damage score, application post-emergence [12]: 4

CN1CC(O)N(c2cc(C(C)(C)C)ncn2)C1=O (stereo not drawn) [Example A1, 3-(6-tert-butylpyrimidin-4-yl)-4-hydroxy-1-methyl-imidazolidin-2-one]
ALOMY damage score, application post-emergence [1]: 5 | AMARE damage score, application pre-emergence [2]: 5 | SETFA damage score, application pre-emergence [3]: 5 | ABUTH damage score, application pre-emergence [4]: 5 | ECHCG damage score, application pre-emergence [5]: 5 | ABUTH damage score, application post-emergence [6]: 5 | AMARE damage score, application post-emergence [7]: 5 | ECHCG damage score, application post-emergence [8]: 5 | ZEAMX damage score, application pre-emergence [9]: 4 | ZEAMX damage score, application post-emergence [10]: 5 | ALOMY damage score, application pre-emergence [11]: 4 | SETFA damage score, application post-emergence [12]: 5

CON1C(=O)N(c2cc(C(C)(C)C)ncn2)C(O)C1O (stereo not drawn) [Example A9]
ALOMY damage score, application post-emergence [1]: 4 | AMARE damage score, application pre-emergence [2]: 5 | SETFA damage score, application pre-emergence [3]: 1 | ABUTH damage score, application pre-emergence [4]: 0 | ECHCG damage score, application pre-emergence [5]: 2 | ABUTH damage score, application post-emergence [6]: 5 | AMARE damage score, application post-emergence [7]: 5 | ECHCG damage score, application post-emergence [8]: 4 | ZEAMX damage score, application pre-emergence [9]: 1 | ZEAMX damage score, application post-emergence [10]: 1 | ALOMY damage score, application pre-emergence [11]: 3 | SETFA damage score, application post-emergence [12]: 4

COC1C(O)N(c2cc(C(C)(C)C)ncn2)C(=O)N1OC (stereo not drawn) [Example A7]
ALOMY damage score, application post-emergence [1]: 5 | AMARE damage score, application pre-emergence [2]: 5 | SETFA damage score, application pre-emergence [3]: 4 | ABUTH damage score, application pre-emergence [4]: 5 | ECHCG damage score, application pre-emergence [5]: 4 | ABUTH damage score, application post-emergence [6]: 5 | AMARE damage score, application post-emergence [7]: 5 | ECHCG damage score, application post-emergence [8]: 4 | ZEAMX damage score, application pre-emergence [9]: 4 | ZEAMX damage score, application post-emergence [10]: 4 | ALOMY damage score, application pre-emergence [11]: 4 | SETFA damage score, application post-emergence [12]: 5

CON1C(=O)N(c2cc(C(C)(C)C#N)ncn2)C(O)C1C (stereo not drawn) [Example A25]
ALOMY damage score, application post-emergence [1]: 5 | AMARE damage score, application pre-emergence [2]: 5 | SETFA damage score, application pre-emergence [3]: 5 | ABUTH damage score, application pre-emergence [4]: 5 | ECHCG damage score, application pre-emergence [5]: 5 | ABUTH damage score, application post-emergence [6]: 5 | AMARE damage score, application post-emergence [7]: 5 | ECHCG damage score, application post-emergence [8]: 5 | ZEAMX damage score, application pre-emergence [9]: 4 | ZEAMX damage score, application post-emergence [10]: 5 | ALOMY damage score, application pre-emergence [11]: 4 | SETFA damage score, application post-emergence [12]: 5

CCN1C(=O)N(c2cc(C(C)(C)C)ncn2)C(O)C1OC (stereo not drawn) [Example A26]
ALOMY damage score, application post-emergence [1]: 1 | AMARE damage score, application pre-emergence [2]: 1 | SETFA damage score, application pre-emergence [3]: 0 | ABUTH damage score, application pre-emergence [4]: 2 | ECHCG damage score, application pre-emergence [5]: 0 | ABUTH damage score, application post-emergence [6]: 1 | AMARE damage score, application post-emergence [7]: 0 | ECHCG damage score, application post-emergence [8]: 0 | ZEAMX damage score, application pre-emergence [9]: 1 | ZEAMX damage score, application post-emergence [10]: 1 | ALOMY damage score, application pre-emergence [11]: 0 | SETFA damage score, application post-emergence [12]: 2

— US9487502B2, “Chemical compounds” (Syngenta Limited, priority 2013, dated 2016)
